Test results: patent US20260356804A1, “SODIUM CHANNEL BLOCKING COMPOUNDS, DERIVATIVES THEREOF, AND METHODS OF THEIR USE” (LATIGO BIOTHERAPEUTICS, INC., priority 2022, published 2026)
Structures can show the parent of a compound that is named as a salt. Where two headings read alike, the source gives them in different places.

Target: T1, human Nav1.8/b3 (Homo sapiens, UniProt Q9Y5Y9)
T1 construct: expressed in transfected cells; host or cells: CHO
Experiment: Compound Profiling Human NaV1.8/β3 Cell Line—SyncroPatch384PE Assay (automated patch clamp, stably transfected CHO cells)
Format: cell-based
Details: Nav1.8/b3 CHO cells

[1] = P1 (IC50, resting state block), P1 measurement, resting state block, holding potential −120 mV, fourth set of compounds
[2] = P2 (IC50, inactivated state block), P2 measurement, inactivated state block, inactivation step −35 mV 10 sec, fourth set of compounds
[3] = P1 (IC50, resting state block), P1 measurement, resting state block, holding potential −120 mV, third set of compounds
[4] = P2 (IC50, inactivated state block), P2 measurement, inactivated state block, inactivation step −35 mV 10 sec, third set of compounds
[5] = P1 (IC50, resting state block), P1 measurement, resting state block, holding potential −120 mV, second set of compounds
[6] = P2 (IC50, inactivated state block), P2 measurement, inactivated state block, inactivation step −35 mV 10 sec, second set of compounds
[7] = P1 (IC50, resting state block), P1 measurement, resting state block, holding potential −120 mV, first set of compounds
[8] = P2 (IC50, inactivated state block), P2 measurement, inactivated state block, inactivation step −35 mV 10 sec, first set of compounds
[9] = P1 measurement, resting state block, holding potential −120 mV, third set of compounds, read-out: P1 (IC50, resting state block)
[10] = P2 measurement, inactivated state block, inactivation step −35 mV 10 sec, third set of compounds, read-out: P2 (IC50, inactivated state block)

T1 sequence (Q9Y5Y9 whole entry): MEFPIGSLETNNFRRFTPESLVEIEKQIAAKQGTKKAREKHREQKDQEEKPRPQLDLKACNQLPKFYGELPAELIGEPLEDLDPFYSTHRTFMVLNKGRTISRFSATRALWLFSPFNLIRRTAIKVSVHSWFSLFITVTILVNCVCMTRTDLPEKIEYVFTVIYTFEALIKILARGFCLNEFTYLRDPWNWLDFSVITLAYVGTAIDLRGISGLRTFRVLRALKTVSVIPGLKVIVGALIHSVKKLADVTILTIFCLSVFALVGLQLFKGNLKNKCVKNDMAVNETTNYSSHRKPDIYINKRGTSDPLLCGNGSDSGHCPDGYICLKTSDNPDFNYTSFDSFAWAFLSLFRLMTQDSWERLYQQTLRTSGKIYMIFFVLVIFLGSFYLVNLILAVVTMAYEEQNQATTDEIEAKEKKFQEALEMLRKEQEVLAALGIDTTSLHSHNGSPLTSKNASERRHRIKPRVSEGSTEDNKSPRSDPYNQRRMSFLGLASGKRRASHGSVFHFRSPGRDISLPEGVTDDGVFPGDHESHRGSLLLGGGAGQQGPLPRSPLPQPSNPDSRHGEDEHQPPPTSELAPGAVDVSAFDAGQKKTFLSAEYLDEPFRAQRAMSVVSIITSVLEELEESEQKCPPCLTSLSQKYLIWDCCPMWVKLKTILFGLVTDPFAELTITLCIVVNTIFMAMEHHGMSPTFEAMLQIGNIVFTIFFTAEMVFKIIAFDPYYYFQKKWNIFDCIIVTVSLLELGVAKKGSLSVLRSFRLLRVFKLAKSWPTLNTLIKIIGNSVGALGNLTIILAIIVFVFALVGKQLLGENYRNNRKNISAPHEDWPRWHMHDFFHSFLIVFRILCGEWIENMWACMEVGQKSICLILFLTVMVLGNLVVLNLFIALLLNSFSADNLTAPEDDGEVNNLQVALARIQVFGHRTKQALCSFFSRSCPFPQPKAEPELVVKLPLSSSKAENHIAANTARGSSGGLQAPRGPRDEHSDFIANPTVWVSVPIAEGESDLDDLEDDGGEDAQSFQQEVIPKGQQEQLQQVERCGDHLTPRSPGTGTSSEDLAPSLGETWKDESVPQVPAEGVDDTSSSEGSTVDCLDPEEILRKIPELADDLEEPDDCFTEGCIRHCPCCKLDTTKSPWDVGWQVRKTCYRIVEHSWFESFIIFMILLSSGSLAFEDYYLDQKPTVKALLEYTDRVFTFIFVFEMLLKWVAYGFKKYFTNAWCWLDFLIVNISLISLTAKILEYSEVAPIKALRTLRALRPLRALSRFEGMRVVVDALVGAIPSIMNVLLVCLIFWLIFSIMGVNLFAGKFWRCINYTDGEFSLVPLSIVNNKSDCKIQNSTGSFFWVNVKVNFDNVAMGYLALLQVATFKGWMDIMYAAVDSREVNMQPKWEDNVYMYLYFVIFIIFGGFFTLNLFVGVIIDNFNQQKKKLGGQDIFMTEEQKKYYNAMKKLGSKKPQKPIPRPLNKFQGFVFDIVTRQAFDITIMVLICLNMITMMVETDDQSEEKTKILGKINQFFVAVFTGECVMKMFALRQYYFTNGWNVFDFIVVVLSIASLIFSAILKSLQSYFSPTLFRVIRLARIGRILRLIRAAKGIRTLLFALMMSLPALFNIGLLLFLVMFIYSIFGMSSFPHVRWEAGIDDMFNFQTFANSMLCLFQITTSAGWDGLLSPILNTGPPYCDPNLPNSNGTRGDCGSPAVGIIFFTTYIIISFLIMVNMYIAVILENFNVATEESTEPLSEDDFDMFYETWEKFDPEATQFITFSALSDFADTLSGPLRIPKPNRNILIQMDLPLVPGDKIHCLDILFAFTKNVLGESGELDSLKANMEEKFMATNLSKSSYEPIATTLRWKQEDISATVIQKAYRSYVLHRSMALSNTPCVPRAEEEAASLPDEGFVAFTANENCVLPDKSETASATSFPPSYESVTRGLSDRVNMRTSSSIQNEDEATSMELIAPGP
T1 sequence (Q9NY72 23-215 partner): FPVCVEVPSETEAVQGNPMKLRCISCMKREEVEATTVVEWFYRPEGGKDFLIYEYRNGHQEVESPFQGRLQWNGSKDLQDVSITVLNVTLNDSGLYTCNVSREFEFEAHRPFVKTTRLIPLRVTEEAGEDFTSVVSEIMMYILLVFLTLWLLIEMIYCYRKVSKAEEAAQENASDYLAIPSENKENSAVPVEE

Cc1nc(F)ccc1Oc1nnc(C(F)(F)F)c(C)c1C(=O)Nc1cccc([S@@](C)(=O)=NC(=O)CN2CC(F)(F)C2)c1 [Example 28D, (R)—N-(3-(N-(2-(3,3-difluoroazetidin-1-yl)acetyl)-S-methylsulfonimidoyl)phenyl)-3-((6-fluoro-2-methylpyridin-3-yl)oxy)-5-methyl-6-(trifluoromethyl)pyridazine-4-carboxamide]
IC50 [1]: < 5 nM
IC50 [2]: < 5 nM

Cc1nc(F)ccc1Oc1nc(C2CC2)c(C(F)(F)F)c(C)c1C(=O)Nc1ccnc([S@](C)(=N)=O)c1 [Example 106C]
IC50 [3]: < 5 nM
IC50 [4]: < 5 nM

Cc1nc(F)ccc1Oc1nc(C(F)(F)F)c(Cl)c(C)c1C(=O)Nc1cccc([S@](C)(=N)=O)c1 [Example 35C, (R)-5-chloro-2-((6-fluoro-2-methylpyridin-3-yl)oxy)-4-methyl-N-(3-(S-methylsulfonimidoyl)phenyl)-6-(trifluoromethyl)nicotinamide]
IC50 [3]: < 5 nM
IC50 [4]: < 5 nM

Cc1nc(F)ccc1Oc1ncc(C(F)(F)F)c(C)c1C(=O)Nc1ccc(F)c([S@](C)(=N)=O)c1 (single isomer, unassigned) [Example 15C]
IC50 [3]: 5 to 50 nM
IC50 [4]: 5 to 50 nM

Cc1nc(F)ccc1Oc1cc(C(F)(F)F)ccc1C(=O)Nc1cccc([S@@](C)(=O)=NC(=O)CO)c1 [Example 11B, (R)-2-((6-fluoro-2-methylpyridin-3-yl)oxy)-N-(3-(N-(2-hydroxyacetyl)-S-methylsulfonimidoyl)phenyl)-4-(trifluoromethyl)benzamide]
IC50 [5]: 5 to 50 nM
IC50 [6]: 5 to 50 nM

COc1cc(C#N)ccc1Oc1ncc(Cl)c(C)c1C(=O)Nc1cccc([S@](C)(=N)=O)c1 [Example 26C, (R)-5-chloro-2-(4-cyano-2-methoxyphenoxy)-4-methyl-N-(3-(S-methylsulfonimidoyl)phenyl)nicotinamide]
IC50 [3]: 5 to 50 nM
IC50 [4]: 5 to 50 nM

Cc1nc(F)ccc1Oc1cc(C(F)(F)F)ccc1C(=O)Nc1cccc([S@@](C)(=O)=NC(=O)[C@H](C)O)c1 [Example 12B, 2-((6-fluoro-2-methylpyridin-3-yl)oxy)-N-(3-((R)—N—((S)-2-hydroxypropanoyl)-S-methylsulfonimidoyl)phenyl)-4-(trifluoromethyl)benzamide]
IC50 [5]: 5 to 50 nM
IC50 [6]: 5 to 50 nM

Cc1nc(F)ccc1Oc1nnc(-c2ccc3c(c2)OCCO3)c(C)c1C(=O)Nc1cccc([S@](C)(=N)=O)c1 [Example 7C, (R)-6-(2,3-dihydrobenzo[b][1,4]dioxin-6-yl)-3-((6-fluoro-2-methylpyridin-3-yl)oxy)-5-methyl-N-(3-(S-methylsulfonimidoyl)phenyl)pyridazine-4-carboxamide]
IC50 [3]: < 5 nM
IC50 [4]: < 5 nM

CN=[S@](C)(=O)c1cccc(NC(=O)c2c(Oc3ccc(F)nc3C)ncc(C(F)(F)F)c2C)c1 [Example 33C, (R)—N-(3-(N,S-dimethylsulfonimidoyl)phenyl)-2-((6-fluoro-2-methylpyridin-3-yl)oxy)-4-methyl-5-(trifluoromethyl)nicotinamide]
IC50 [3]: 5 to 50 nM
IC50 [4]: < 5 nM

COc1cc(C#N)ccc1Oc1ncc(C(F)(F)F)c(C)c1C(=O)Nc1cccc(S(N)(=O)=O)c1 [Example 28C, 2-(4-cyano-2-methoxyphenoxy)-4-methyl-N-(3-sulfamoylphenyl)-5-(trifluoromethyl)nicotinamide]
IC50 [3]: < 5 nM
IC50 [4]: < 5 nM

Cc1nc(F)ccc1Oc1ncc(C(F)(F)F)c(C)c1C(=O)Nc1cccc([S@@](C)(=O)=NC(=O)[C@H]2CCCO2)c1 [Example 14D, 2-((6-fluoro-2-methylpyridin-3-yl)oxy)-4-methyl-N-(3-((R)—S-methyl-N—((R)-tetrahydrofuran-2-carbonyl)sulfonimidoyl)phenyl)-5-(trifluoromethyl)nicotinamide]
IC50 [1]: < 5 nM
IC50 [2]: < 5 nM

Cc1nc(F)ccc1Oc1nc2ccccc2cc1C(=O)Nc1cccc([S@](C)(=N)=O)c1 [Example 97C]
IC50 [3]: 50 to 100 nM
IC50 [4]: 50 to 100 nM

Cc1nc(F)ccc1Oc1cc(C(F)(F)F)c(Cl)cc1C(=O)Nc1ccc(F)c([S+](C)[O-])c1 (centres unmarked) [Example 69A]
IC50 [7]: < 5 nM
IC50 [8]: < 5 nM

Cc1nc(F)ccc1Oc1cc(C(F)(F)F)c(Cl)cc1C(=O)Nc1ccc(F)c(S(C)(=O)=O)c1 [Example 54A]
IC50 [7]: < 5 nM
IC50 [8]: < 5 nM

Cc1nc(F)ccc1Oc1cc(C2CC2)c(C(F)(F)F)cc1C(=O)Nc1ccnc([S@](C)(=N)=O)c1 [Example 58A]
IC50 [7]: < 5 nM
IC50 [8]: < 5 nM

Cc1nc(F)ccc1Oc1ncc(C(F)(F)F)c(C)c1C(=O)Nc1cccc([S@@](C)(=O)=NCCN(C)C)c1 [Example 91C]
IC50 [3]: < 5 nM
IC50 [4]: < 5 nM

Cc1nc(F)ccc1Oc1cc(C(F)(F)F)ccc1C(=O)Nc1cccc([S@@](C)(=O)=NC(=O)[C@@H]2CCCN2)c1 [Example 8B, (S)—N—((R)-(3-(2-((6-fluoro-2-methylpyridin-3-yl)oxy)-4-(trifluoromethyl)benzamido)phenyl)(methyl)(oxo)-λ^6-sulfaneylidene)pyrrolidine-2-carboxamide formate]
IC50 (P1 measurement, resting state block, holding potential −120 mV, second set of compounds, read-out: P1 (IC50, resting state block)): < 5 nM
IC50 (P2 measurement, inactivated state block, inactivation step −35 mV 10 sec, second set of compounds, read-out: P2 (IC50, inactivated state block)): < 5 nM

Cc1nc(F)ccc1Oc1ncc(C(F)(F)F)c(C)c1C(=O)Nc1cccc([S@@](C)(=O)=NCC(C)(C)N)c1 [Example 90C]
IC50 [3]: < 5 nM
IC50 [4]: < 5 nM

Cc1nc(F)ccc1Oc1cc(C(F)(F)F)c(Cl)cc1C(=O)Nc1ccnc([S@](C)(=N)=O)c1 (single isomer, unassigned) [Example 6A]
IC50 [7]: < 5 nM
IC50 [8]: < 5 nM

CC(=O)N=[S@](C)(=O)c1cccc(NC(=O)c2c(Oc3ccc(F)nc3C)ncc(C(F)(F)F)c2C)c1 [Example 3D, (R)—N-(3-(N-acetyl-S-methylsulfonimidoyl)phenyl)-2-((6-fluoro-2-methylpyridin-3-yl)oxy)-4-methyl-5-(trifluoromethyl)nicotinamide]
IC50 [1]: < 5 nM
IC50 [2]: < 5 nM

Cc1nc(F)ccc1Oc1ncc(-c2ccc(F)c(F)c2)c(C)c1C(=O)Nc1cccc(S(C)(=N)=N)c1 [Example 124C]
IC50 [3]: 5 to 50 nM
IC50 [4]: 5 to 50 nM

Cc1nc(F)ccc1Oc1cc(C(F)(F)F)c(Cl)cc1C(=O)Nc1cccc([S@@](C)(=O)=NC(=O)[C@@H](C)O)c1 [Example 1B, 5-chloro-2-((6-fluoro-2-methylpyridin-3-yl)oxy)-N-(3-((R)—N—((R)-2-hydroxypropanoyl)-S-methylsulfonimidoyl)phenyl)-4-(trifluoromethyl)benzamide]
IC50 [5]: < 5 nM
IC50 [6]: < 5 nM

Cc1nc(F)ccc1Oc1cc(C(F)(F)F)ccc1C(=O)Nc1cccc([S@@](C)(=O)=NC(=O)[C@@H](C)N)c1 [Example 9B, N-(3-((R)—N-(D-alanyl)-S-methylsulfonimidoyl)phenyl)-2-((6-fluoro-2-methylpyridin-3-yl)oxy)-4-(trifluoromethyl)benzamide]
IC50 [5]: < 5 nM
IC50 [6]: < 5 nM

Cc1nc(F)ccc1Oc1ncc(C(F)(F)F)c(C)c1C(=O)Nc1ccc(F)c(S(C)(=O)=O)c1 [Example 101C]
IC50 [9]: 5 to 50 nM
IC50 [10]: 5 to 50 nM

Cc1nc(F)ccc1Oc1ncc(C(F)(F)F)c(C)c1C(=O)Nc1cccc(S(C)(=O)=NCC2(N)CC2)c1 (centres unmarked) [Example 92C]
IC50 [9]: < 5 nM
IC50 [10]: < 5 nM

Cc1nc(F)ccc1Oc1cnc(C(F)(F)F)c(Cl)c1C(=O)Nc1cccc([S@](C)(=N)=O)c1 [Example 45C, (R)-3-chloro-5-((6-fluoro-2-methylpyridin-3-yl)oxy)-N-(3-(S-methylsulfonimidoyl)phenyl)-2-(trifluoromethyl)isonicotinamide]
IC50 [9]: < 5 nM
IC50 [10]: < 5 nM

Cc1nc(F)ccc1Oc1ncc(C(F)(F)F)c(C)c1C(=O)Nc1cccc([S@@](C)(=O)=NCCN)c1 [Example 43C, (R)—N-(3-(N-(2-aminoethyl)-S-methylsulfonimidoyl)phenyl)-2-((6-fluoro-2-methylpyridin-3-yl)oxy)-4-methyl-5-(trifluoromethyl)nicotinamide]
IC50 [3]: < 5 nM
IC50 [4]: < 5 nM

Cc1nc(F)ccc1Oc1cc(C(F)(F)F)c(Cl)c(F)c1C(=O)Nc1ccnc([S@@](C)(=N)=O)c1 [Example 34A]
IC50 [7]: < 5 nM
IC50 [8]: < 5 nM

Cc1nc(F)ccc1Oc1ncc(C(F)(F)F)c(C)c1C(=O)Nc1ccc(F)c([S+](C)[O-])c1 (centres unmarked) [Example 102C]
IC50 [3]: 5 to 50 nM
IC50 [4]: 5 to 50 nM

Cc1nc(F)ccc1Oc1ccc(C(F)(F)F)c(C)c1C(=O)Nc1cccc([S@@](C)(=O)=NC(=O)CN)c1 [Example 26B]
IC50 [5]: < 5 nM
IC50 [6]: < 5 nM

Cc1nc(F)ccc1Oc1ncc(-c2ccc(C#N)cc2)c(C)c1C(=O)Nc1cccc([S@](C)(=N)=O)c1 [Example 3C, (R)-5-(4-cyanophenyl)-2-((6-fluoro-2-methylpyridin-3-yl)oxy)-4-methyl-N-(3-(S-methylsulfonimidoyl)phenyl)nicotinamide]
IC50 [3]: 5 to 50 nM
IC50 [4]: 5 to 50 nM
